US20150072020A1, “Dexanabinol or a Derivative Thereof for Use in the Treatment of Cancer in Dose Ranges of 2-30 mg/kg” (E-THERAPEUTICS PLC, priority 2012, published 2015)

Legend:
[1] = biological target: CDK5 (Homo sapiens, UniProt Q00535); assay: direct assay of dexanabinol against CDK5; format: biochemical; settings: when directly assayed; heading names CDK5/p25
Text: (§1) However, we believe that CDKs are affected indirectly, in circumstances where more of the intracellular network that might mediate such effects remains present.

[2] = biological target: CDK2 (Homo sapiens, UniProt P24941); assay: direct assay of dexanabinol against CDK2; format: biochemical; settings: when directly assayed; heading names CDK2/A
Text: as §1

Sequence of CDK5 (Q00535 whole entry, species assumed): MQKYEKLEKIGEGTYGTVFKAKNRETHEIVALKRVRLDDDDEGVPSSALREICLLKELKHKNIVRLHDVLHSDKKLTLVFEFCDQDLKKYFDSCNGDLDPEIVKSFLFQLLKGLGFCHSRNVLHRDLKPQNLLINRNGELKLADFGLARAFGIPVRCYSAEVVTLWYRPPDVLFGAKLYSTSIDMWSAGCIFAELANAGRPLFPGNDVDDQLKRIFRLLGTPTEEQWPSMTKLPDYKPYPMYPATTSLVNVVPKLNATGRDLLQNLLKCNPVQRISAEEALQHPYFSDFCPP
Sequence of CDK5 (Q15078 99-307 partner limits assumed, species assumed): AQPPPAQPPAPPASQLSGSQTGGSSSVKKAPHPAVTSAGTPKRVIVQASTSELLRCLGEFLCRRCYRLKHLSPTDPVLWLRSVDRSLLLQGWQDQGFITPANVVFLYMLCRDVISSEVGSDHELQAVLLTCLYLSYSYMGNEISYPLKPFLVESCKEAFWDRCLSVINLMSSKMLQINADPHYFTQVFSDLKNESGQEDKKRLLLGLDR

SMILES: CCCCCCC(C)(C)c1cc(O)c2c(c1)OC(C)(C)[C@H]1CC=C(CO)C[C@H]21 [Dexanabinol, 1, 1 dimethyl heptyl-(3S, 4S)-7-hydroxy-Δ^6-tetrahydrocannabinol]
- direct activity against CDK5 [1]: no significant direct activity
- direct activity against CDK2 [2]: no significant direct activity
